According to patent publication US9163018B2, “Method of treatment of age-related macular degeneration (AMD)” (Prana Biotechnology Limited, priority 2006, dated 2015):
Read-outs that look alike come from different tables or passages of the source.

What was measured:
[1] = Mice plasma concentration after oral dose; assay type: in vivo; settings: for Mice plasma concentration: 30 min to 4 h after single or repeat oral dose of 30 mg/kg
[2] = system: M17 human neuroblastoma cells; experiment: Cytotoxicity, M17 human neuroblastoma cells; assay type: cell-based; settings: for Cytotox (% viable) M17 cells at 1 μM: 1 μM test compound; for Cytotox (% viable) M17 cells at 10 μM: 10 μM test compound
Experimental: Assay 3. MTS Assay for Cell Viability
Cell viability is determined using the MTS assay. Culture medium is replaced with fresh neurobasal medium plus B27 supplements minus antioxidants. 1/10th volume MTS solution (Cell Titre 96 Aqueous One, Promega Corporation) and incubated at 37° C., 2 hrs. 200 microliter aliquots are measured with a spectrophotometer at 560 nm.

[3] = Toxicity, visual observations in mice; settings: duration and visual observations
Aβ 1-42 = biological target: T1, Aβ 1-42 (Homo sapiens, UniProt P05067); experiment: Fluorometric H2O2 assay (inhibition of Abeta H2O2 production); assay type: biochemical
T1 construct: The reaction solutions contained Aβ 1-42 at concentrations
T1 sequence (P05067 672-713 limits assumed): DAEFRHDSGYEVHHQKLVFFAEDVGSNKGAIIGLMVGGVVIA
Method in brief: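 Reactions in PBS pH 7.4 at 37 C for 60 min, containing Aβ, copper and test compound. H2O2 output read as fluorescence of HRP-coupled deacetylated DCF. Fluorescence converted to H2O2 concentration via H2O2 standards.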

[4] = biological target: T2, Abeta:Zn (25:50 μM) Synthetic Aggregations (Homo sapiens, UniProt P05067); experiment: Disaggregation of Abeta:Zn synthetic aggregates (ThT fluorescence); assay type: biochemical; settings: for Disaggregation % Aggregate reduction at 5 μM: 5 μM test compound
T2 construct: PB Compound Mediated Dissolution of Aggregated Abeta 1-42; purchased Keck Laboratory, Yale University School of Medicine
T2 sequence (P05067 672-713 limits assumed): as above
Method in brief: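 ThT signal (excitation 450 nm, emission 480 nm) measured after compounds at final 1, 5, 10, 25 and 50 μM acted 2 h at 37 degrees on preformed aggregates. Those aggregates came from 24 h rotating incubation of 25 μM Abeta1-42, 50 μM ZnCl2 and 50 μM ThT in PBS pH 6.6.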

[5] = system: primary cortical neuronal cultured cells; experiment: Test compound cytotoxicity, MTS assay, primary cortical neuronal cultures; assay type: cell-based, mouse; settings: for Cytotox (% viable) Neuronal cells at 1 μM: 1 μM test compound; for Cytotox (% viable) Neuronal cells at 10 μM: 10 μM test compound
Method in brief: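 Primary cortical neurons were cultured five days in Neurobasal/B27, then exposed on day six to compounds (from 2.5 mM DMSO stocks) in medium minus antioxidants, in triplicate for 4 days at 37° C. Viability was measured by MTS, 2 h at 37° C, absorbance at 560 nm.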

[6] = system: Abeta in extract of post-mortem human AD brain tissue; experiment: BAS: human brain amyloid solubilization assay; assay type: biochemical
Experimental: Assay 5. Human Brain Amyloid Solubilization Assay
This assay was performed in order to assess the ability of a test compound to mobilise Aβ, as an example form of amyloid, from the insoluble to the soluble phase of an extract of tissue from post mortem human AD brain.
Up to 0.5 g of plaque-bearing cortex without meninges was homogenized using a DIAX 900 homogenizer (Hendolph and Co, Kelheim, Germany) or other suitable device for three 30-second periods at full speed in 2 ml of ice-cold phosphate-buffered saline, pH 7.4. To obtain the phosphate-buffered saline-extractable fraction, the homogenate was centrifuged at 100,000×g for 30 min and the supernatant removed. Alternatively, the tissue was freeze dried then pulverized to form a powder which was then weighed out into aliquots for extraction as above. Supernatant, either freeze-dried and resuspended or in unconcentrated form, was dissolved in 200 μl of Tris-Tricine sodium dodecyl sulfate (SDS) sample buffer pH 8.3 containing 8% SDS, 10% 2-mercaptoethanol. Aliquots (10 μl) were then boiled for 10 minutes before SDS-polyacrylamide gel electrophoresis. The insoluble fraction of the cortical samples was obtained by resuspending the initial pelleted sample in 1 ml of phosphate-buffered saline, A 50-μl aliquot of this suspension was then boiled in […] of sample buffer as above.
Tris-Tricine polyacrylamide gel electrophoresis was performed by loading appropriately diluted samples on to 10% to 20% gradient gels (Novex, San Diego, Calif.) followed by transfer on to 0.2-μm nitrocellulose membrane (Bio-Rad, Hercules, Calif.). Aβ was detected by using monoclonal antibody W02, which detects residues 5 through 8, […] (or another suitable antibody) in conjunction with horseradish peroxidase-conjugated rabbit anti-mouse IgG (Dako, Denmark), and visualized by using enhanced chemiluminescence (eg ECL; Amersham Life Science, Buckinghamshire, UK). Each gel included three lanes containing 0.5, 1, and 2 ng of synthetic Aβ40 (Keck Laboratory, Yale University, New Haven, Conn.) as reference standards.
Blot films were scanned by using a suitable imaging system such as the UVP gel documentation system, and densitometry performed using suitable software, eg UVP Labworks. The dynamic range of the film/scanner was determined by using a step tablet (No. 911ST600, Kodak, Rochester N.Y.), a calibrated film exposed by the manufacturer to provided steps of known increasing intensity. The quantifiable range of signal intensity for densitometric analysis of the mono- and dimeric Aβ bands was based on the comparison with a curve obtained by scanning and densitometry of the step tablet.
All samples were analyzed at least twice, and gel loadings and dilutions were adjusted to fit within the quantifiable region of the standard curve. The proportion of ‘soluble’ to ‘insoluble’ Aβ may be used to determine the efficiency of extraction of a test compound compared with the efficiency of a known compound. The insoluble Aβ being comprised of the pelletable fraction derived from the insoluble amyloid plaque from the above cortical samples and the soluble fraction comprising monomeric and/or oligomeric soluble Aβ.

[7] = concentration required to inhibit 50% of Abeta H2O2 production, read-out: H2O2 IC50
[8] = max effect across the concentration range, referenced to baseline PBS

SMILES | Mice plasma concentration at 120 mg/kg ([1]; 120 mg/kg) | Mice plasma concentration [1] | Cytotox (% viable) M17 cells at 1 μM [2] | Cytotox (% viable) M17 cells at 10 μM [2] | Toxicity at 30 mg/kg [3] | IC50 (Aβ 1-42; [7]) | Disaggregation % Aggregate reduction at 5 μM [4] | EC50 ([4]; Abeta:Zn 25:50 μM aggregates) | Cytotox (% viable) Neuronal cells at 1 μM [5] | Cytotox (% viable) Neuronal cells at 10 μM [5] | IC50 (Aβ 1-42) | BAS max effect [6] | Disaggregation EC50 ([4]; Abeta:Zn 25:50 μM aggregates) | Mice plasma concentration at 10 mg/kg ([1]; oral dose 10 mg/kg) | Toxicity at 10 mg/kg ([3]; 10 mg/kg) | BAS max effect [6, 8]
CCc1c(O)c(O)cc[n+]1CC.[Cl-] [PB 1270] | ≤ 4455 ng/mL | ≤ 493.7 ng/mL | 102.8% | 108.3% | 10 days, none |  |  |  |  |  |  |  |  |  |  | 
CCCCc1cnc2c(O)cccn2c1=O [PB 1144] |  |  | 73.6% | 37% | 10 days, none | 320 nM | 15.5% | 9100 nM |  |  |  |  |  |  |  | 
CCn1cnc2c(O)c(I)ccc2c1=O [PB 1123] |  |  |  |  | 10 days, none | 290 nM | 25% | 910 nM |  |  |  |  |  |  |  | 
CCCn1cnc2c(O)c(I)ccc2c1=O [PB 1119] |  | Up to 1096 ng/ mL ng/mL |  |  | 10 days, none | 280 nM | 51.5% | 2720 nM |  |  |  |  |  |  |  | 
Br.CC(C)n1cnc2c(O)c(Cl)cc(Cl)c2c1=O [PB 1108] |  | Up to 383 ng/ mL ng/mL | 94.3% | 74.5% | 10 days, none |  | 46.5% | > 20000 nM | 104% | 71% |  |  |  |  |  | 
CN(C)Cc1ccc2c(Cl)cc(I)c(O)c2n1 [PB 1177] |  |  | 97.9% | 24.4% | 1 day, 3/4 deaths | 290 nM | 79% | 2400 nM |  |  |  |  |  |  |  | 
Oc1cccc2cccnc12 [PB 42] |  |  |  |  |  |  |  |  | 93% | 36% | 700 nM | BAS: 227% (1 μM- 100 μM) | Inactive |  |  | 
O=c1c2c(Cl)cc(I)c(O)c2ncn1CC1CC1 [PB 1140] |  |  | 92.4% | 98.2% |  | 360 nM | 64% | 3500 nM |  |  |  |  |  | At 10 mg/kg: Up to 2315 ng/ ml ng/mL | At 10 mg/kg 10 days, none | 
O=c1c2ccc(I)c(O)c2ncn1Cc1ccccn1 [PB 1122] |  | Up to 1538 ng/ mL ng/mL | 97.5% | 79.5% | 10 days, none | 520 nM | 62.4% | 660 nM |  |  |  |  |  |  |  | 
Cc1ccc(-n2cnc3c(O)c(Cl)cc(Cl)c3c2=O)nc1 [PB 1089] |  | Up to 39 ng/ mL ng/mL |  |  | 10 days, none |  | 16.4% | > 20000 nM | 96% | 83% |  |  |  |  |  | 
O=c1c2c(Cl)cc(Cl)c(O)c2ncn1CCc1ccccn1 [PB 1091] |  | Up to 59 ng/ mL ng/mL |  |  | 10 days, none |  | 23.4% | > 20000 nM | 100% | 92% |  |  |  |  |  | 
CN(C)Cc1cnc2c(Cl)cc(Cl)c(O)c2n1.Cl [PB 1066] |  | Up to 1000 ng/mL in mice |  |  |  | > 10000 nM | 35% | > 50000 nM | 92% | 95% |  |  |  |  |  | 
CCn1nccc1-n1cnc2c(O)c(Cl)cc(Cl)c2c1=O [PB 1088] |  | Up to 3896 ng/ mL ng/mL |  |  | 10 days, none |  | 16.4% | > 20000 nM | 102% | 94% |  |  |  |  |  | 
O=c1c(-c2ccc(Cl)cc2)cnc2c(O)c(I)ccn12 [PB 1063] |  | Up to 450 ng/ mL in mice ng/mL |  |  | 10 days, mild toxic signs |  | 40.5% | 19700 nM | 41% | 33% |  |  |  |  |  | 
Oc1c(Br)cc(Br)c2cccnc12 [PB 47] |  |  |  |  |  | 500 nM | 50% | 5000 nM | 100% | 94% |  |  |  |  |  | 412%
COc1ccc(-n2cnc3c(O)c(Cl)cc(Cl)c3c2=O)cn1 [PB 1093] |  | Up to 80 ng/ mL ng/mL |  |  | 10 days, none |  | 16% | > 20000 nM | 122% | 93% |  |  |  |  |  | 
Oc1cccc2ccc(-c3ccccn3)nc12 [PB 1006] |  |  |  |  |  | 530 nM | 49.5% | 5270 nM | 107% | 75% |  |  |  |  |  | 463%
NCc1ccc2cccc(O)c2n1 [PB 968] |  |  |  |  |  | 260 nM | 31.6% | 16300 nM | 101% | 97% |  |  |  |  |  | 390%
